Assays:
Mus musculus [1] = species: Mus musculus; experiment: Dose required to inhibit mouse locomotor activity by 60%; type: functional
Mus musculus [2] = species: Mus musculus; experiment: CNS activity measured using screen test failure; type: functional
Adenosine receptor A1 = target: T1, Adenosine receptor A1 (Rattus norvegicus, UniProt P25099); experiment: Binding affinity for adenosine A1 receptor in rat brain membranes using [3H]CHA as radioligand; type: cell membranes
T1 sequence (P25099 whole entry): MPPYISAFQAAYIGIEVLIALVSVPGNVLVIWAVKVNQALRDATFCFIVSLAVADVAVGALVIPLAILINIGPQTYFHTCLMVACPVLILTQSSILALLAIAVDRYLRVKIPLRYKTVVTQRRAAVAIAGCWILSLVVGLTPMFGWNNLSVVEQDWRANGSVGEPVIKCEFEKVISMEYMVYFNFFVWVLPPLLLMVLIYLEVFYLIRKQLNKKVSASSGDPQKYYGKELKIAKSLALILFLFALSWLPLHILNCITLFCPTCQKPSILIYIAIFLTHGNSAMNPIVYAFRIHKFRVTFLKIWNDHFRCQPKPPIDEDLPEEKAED

Rattus norvegicus [3] = species: Rattus norvegicus; experiment: Cardiovascular activity (as 20% decrease in rate).; type: functional
Adenosine A2 receptor = Adenosine A2 receptor (Rattus norvegicus, UniProt P29276+P30543)
Description: Binding affinity for adenosine A2 receptor in rat striatal membranes using [3H]NECA as radioligand

Rattus norvegicus [4] = species: Rattus norvegicus; experiment: Cardiovascular activity (as 20% decrease in blood pressure).; type: functional
Rattus norvegicus [5] = species: Rattus norvegicus; experiment: Compound was evaluated for Cardiovascular activity (as 20% decrease in rate) in rats; type: functional; settings: Heart

SMILES | LAD (Mus musculus [1]) [mg/kg] | LAD (Mus musculus [2]) [mg/kg] | Ki (Adenosine receptor A1) [µM] | ED20 (Rattus norvegicus [3]) [mg/kg] | Ki (Adenosine A2 receptor) [µM] | ED20 (Rattus norvegicus [4]) [mg/kg] | ED20 (Rattus norvegicus [5]) [mg/kg]
C[C@H](Cc1ccccc1)Nc1ncnc2c1ncn2COCCO | >30 | >30 | 68 |  |  |  | 
C[C@H](Cc1ccccc1)Nc1ncnc2c1ncn2C(CO)OC(O)CO (stereo not given in full) | >100 | >100 | > 10 | > 10 | > 10 | 0.9 | 
C[C@H](Cc1ccccc1)Nc1[nH]cnc2ncnc1-2 | 100 | 100 | 9.6 | > 10 | 39 | 8 | 
C[C@H](Cc1ccccc1)Nc1ncnc2c1ncn2C1CCCO1 (stereo not given in full) | >100 | >100 | 1.5 | > 3 | 8.2 | > 3 | 
C[C@H](Cc1ccccc1)Nc1ncnc2c1ncn2C[C@H](O)CO | >100 | >100 | > 10 |  | > 10 |  | 
C[C@H](Cc1ccccc1)Nc1ncnc2c1ncn2[C@@H]1O[C@@H](CO)[C@@H](O)[C@H]1O | >100 | >100 |  | > 10 |  | > 10 | 
C[C@H](Cc1ccccc1)Nc1ncnc2c1ncn2[C@H]1C[C@H](O)[C@@H](CO)O1 | >30 | >30 | 1.9 |  |  |  | 
C[C@H](Cc1ccccc1)Nc1ncnc2c1ncn2[C@@H]1O[C@H](CO)C[C@H]1O | 100 | 100 | 0.029 | 0.4 | 6.9 | 0.8 | 
C[C@H](Cc1ccccc1)Nc1ncnc2c1ncn2C[C@@H](O)CO | >100 | >100 | > 10 | > 10 | > 10 | > 10 | 
C[C@H](Cc1ccccc1)Nc1ncnc2c1ncn2C1CCCCO1 (stereo not given in full) | 100 | >100 | 1.2 |  | 38 |  | 
C[C@H](Cc1ccccc1)Nc1ncnc2c1ncn2C1CCCC(O)C1O (stereo not given in full) | >100 | >100 | 15 | > 3 | > 10 | > 3 | 
C[C@H](Cc1ccccc1)Nc1ncnc2c1ncn2C1OCC(O)C(O)C1O (stereo not given in full) |  |  | 5.7 |  | > 100 |  | 
C[C@H](Cc1ccccc1)Nc1ncnc2c1ncn2CC(O)C(O)C(O)CO (stereo not given in full) | >100 | >100 | > 2.2 | > 10 | > 100 | 10 | 
C[C@H](Cc1ccccc1)Nc1ncnc2c1ncn2C1O[C@H](C)[C@@H](O)[C@H]1O (stereo not given in full) | 30 | 100 | 0.025 | > 0.3 | 3.3 | 0.05 | 
C[C@H](Cc1ccccc1)Nc1ncnc2c1ncn2C1OC[C@](O)(CO)[C@H]1O (stereo not given in full) |  |  | > 10 |  | > 50 |  | 
CSC[C@H]1OC(n2cnc3c(N[C@H](C)Cc4ccccc4)ncnc32)[C@H](O)[C@@H]1O (stereo not given in full) | >100 | >100 | 0.029 | 3 | 56 | 0.023 | 
C[C@H](Cc1ccccc1)Nc1ncnc2c1ncn2C1O[C@H](CCl)[C@@H](O)[C@H]1O (stereo not given in full) | 10 | 100 | 0.0016 | 0.08 | 1.9 | 0.1 | 
C[C@H](Cc1ccccc1)Nc1ncnc2c1ncn2[C@@H]1O[C@H](CO)[C@@H](O)[C@H]1O [(R)-PIA] | 1 | 3 |  |  |  |  | 0.006

Reference: ChEMBL document CHEMBL1123411, “Ribose-modified adenosine analogues as adenosine receptor agonists” (J Med Chem, 1986)
